Experimental data: article PMC6030159 (Scientific Reports, 2018)
Entries after “also recorded” stand apart in the source; their conditions may differ.

What was measured:
p53 = system: p53; parameters: method as in PMID 19202599; settings: cited from earlier work
BCL-XL = system: T1, BCL-XL; assay: MST binding to BCL-XL; settings: 3 µM MYCMI-6, BCL-XL titrated up to 10 μM
T1 construct: purchased Abcam
Description: MST was carried out on a Monolith NT.115 with blue/green filters, kindly provided by Luca Jovine, Karolinska Institutet Huddinge, according to manufacturer's protocol (NanoTemper). […] Titration of molecules was carried out in 16 PCR tubes into which a fixed concentration of fluorescent molecule was added. The mixture was applied to capillaries (standard treated, NanoTemper), and scanned in the Monolith NT.115 to measure initial fluorescence of molecule. MST was induced and fluorescence was measured during 40 seconds. Double measurements were carried out (MST power of 20% and 40%, or 40% and 60%) for each sample. Delta fluorescence or relative fluorescence of fluorescent molecule normalized to control vehicle was plotted against titrated molecule concentration. The protein labeling kit GREEN-NHS (NanoTemper) was used to label primary amines of proteins according to manufacture's protocol. page 5: Supplementary Figure Legends Supplemental Figure S1. Schematic presentations of MYC and MAX protein constructs. […] The cells were reseeded and treated with vehicle or 25 μM of each compound, after which fluorescence was measured 24 hours post-treatment and the YFP/CFP ratio calculated and normalized to DMSO-treated cells. […] (12.5 μM) and analyzed as described in C). […]

p53 core protein = system: T2, p53 core protein; assay: SPR binding to p53
T2 construct: Truncated p53 core protein was a kind gift from Klas Wiman; gift from Klas Wiman, CCK, Karolinska Institutet
Description: (§1) The MYC SPR assay was carried out as described above with MYCbHLHZip immobilized to a level of 800–1000 RU. For kinetic binding experiments, a Langmuir 1:1 binding event was applied using the Biacore T200 Evaluation Software 2.0 (GE Healthcare) to determine association (ka) and dissociation (kd) constants of the compound and to calculate affinity (KD) by the formula; KD = kd/ka. Binding responses from equilibrium binding experiments were plotted against compound concentration and KD values were determined at 50% of the theoretical Rmax with the formula Rmax = (MW analyte/MW ligand) × immobilized ligand level on the chip (RU) × stoichiometry (1:1). Same coupling method described above was used to immobilize the control proteins. MAX was immobilized to approximately 2000 RU, MAD to 600 RU, BSA to 1000 RU, p53 to 3000 RU and BCL-XL, to 500 RU.

MYCN:MAX interaction = system: T3, MYCN:MAX interaction; assay: isPLA MYCN:MAX on xenograft tumor tissue; type: in vivo, mouse; settings: 20 mg/kg i.p. daily, 1–2 weeks, vs vehicle
T3 construct: from tissue; host or cells: SK-N-DZ xenograft tumour grown in athymic nude mice
Description: isPLA for tumor tissue was performed using 4% formaldehyde fixed paraffin embedded material. The tissue slides were deparaffinized at 65 °C for an hour, rehydrated in 1X Aqua De Par (Biocare Medical) and incubated at 80 °C for 10 min in a pressure chamber (Decloaking Chamber™ Biocare Medical). Slides were soaked in antigen retrieval buffer (10 mM sodium citrate, pH 6.0) and heated in the pressure chamber to 100 °C for 20 minutes, after which the temperature was lowered to 65 °C. Slides were removed from the chamber and cooled down to room temperature. The antigen retrieval buffer was replaced gradually by deionized H2O for 15 min. Slides were placed in blocking buffer (Duolink® isPLA kit) for 1.5 hours at 37 °C followed by an extra blocking step using the Mouse on Mouse (M.O.M.™) basic kit (Vector Laboratories) according to manufacturers’ protocol. isPLA was performed as above.
The last dose was administered 3 hrs before termination.

MXD1 (MAD1) bHLHZip = MXD1 (MAD1) bHLHZip (Homo sapiens, UniProt Q05195); assay: SPR binding to MXD1 (MAD1)
Description: as §1

[1] = system: HOmyc3 (MYC reconstituted HO15.19) Rat1 fibroblasts; assay: WST-1 growth assay, HOmyc3 (MYC reconstituted) Rat1 fibroblasts; type: cell-based, rat
Description: Cell proliferation assays. Cell growth and viability was estimated in triplicates with WST-1
(Roche) or Resazurin sodium salt (Sigma-Aldrich) assays in medium at 37°C and 5% CO 2 for
2 hours after which absorbance or fluorescence, respectively, was measured with an Omega
Fluostar (BMG Labtech) in a 96 well plate format. […]
(§2) 0.7% agarose. […]

[2] = system: Burkitt's lymphoma cell lines Mutu, Daudi and ST486; assay: Growth of Burkitt's lymphoma cell lines; type: cell-based
Description: Cell proliferation assays. Cell growth and viability was estimated in triplicates with WST-1 (Roche) or Resazurin sodium salt (Sigma-Aldrich) assays in medium at 37°C and 5% CO 2 for 2 hours after which absorbance or fluorescence, respectively, was measured with an Omega Fluostar (BMG Labtech) in a 96 well plate format. Cell counting was done in 96 well plates with CellTracker Green (ThermoFisher) for 30 min in the incubator, after which DAPI was added for 5 min. Images were taken in the green (FITC) and blue (DAPI) channels using a fluorescence microscope (ImageXpress Micro, Molecular Devices). […]
as §2

Sequence of MXD1 (MAD1) bHLHZip (Q05195 56-137 limits assumed): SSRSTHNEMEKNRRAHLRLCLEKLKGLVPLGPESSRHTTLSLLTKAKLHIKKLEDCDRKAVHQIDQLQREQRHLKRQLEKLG

CCOc1ccc2nc3cc(/N=N/c4ccc(N)nc4N)ccc3c(N)c2c1 [MYCMI-6]
concentrations causing increased expression of p53 in cells (p53): ≥ 5 µM
binding to BCL-XL (MST) (BCL-XL): did not bind; also recorded: did not observe any binding
binding to p53 (SPR) (p53 core protein): negligible
MYCN:MAX interaction in tumors (isPLA) (MYCN:MAX interaction): significant reduction
binding to MXD1 (MAD1) (SPR) (MXD1 (MAD1) bHLHZip): negligible
growth of MYC reconstituted (HOmyc3) cells [1]: strongly inhibited growth
GI50 ([2]; Burkitts lymphoma cell, Mutu, Daudi, ST486, read-out: average GI50, Burkitt's lymphoma cells): 0.5 µM
lowest IC50/GI50 of tumor cell growth ([2]; neuroblastoma and Burkitt's lymphoma cells with deregulated MYCN/MYC, as low as): ≥ 0.5 µM
